Some test systems named below: LOX IMVI; A498; Malme-3M; ACHN; TK-10; NCI-H460; HCT-116; OVCAR-3; RXF 393; SK-MEL-2; UO-31; 786-0; K562; HCT-15; KM12; UACC-62; SNB-19; SR.
Assay in all cases: inhibition of tumour cell growth, NCI panel, 48 h

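Five compound concentrations were applied to cells in 96-well plates for 48 hours; endpoints were derived by simple linear interpolation of the resulting dose-response curve. Abbreviation: GI50, concentration required for 50% inhibition of growth.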 Active and inactive are the calls of the source. No stated cut-off is given here; in the data, active = GI50 up to about 1.1 µM and inactive = higher. A value given as a limit tells only on which side of the number the result lay.

In the case of `Cc1cc(C)nc(NS(=O)(=O)c2ccc(NC(=O)c3cccc4c(N)c5ccccc5nc34)cc2)n1`, the GI50 with LOX IMVI was 53.6 µM (inactive); in the assay on A498, > 100 µM (inactive); with Malme-3M, > 100 µM (inactive); in the assay on ACHN, > 100 µM (inactive); in the assay on TK-10, > 100 µM (inactive); with NCI-H460, > 100 µM (inactive). In addition, the GI50 was 90.6 µM (inactive) in the assay with HCT-116; > 100 µM (inactive) in the assay with OVCAR-3; > 100 µM (inactive) with RXF 393; > 100 µM (inactive) in the assay with SK-MEL-2; > 100 µM (inactive) in the assay with UO-31; > 100 µM (inactive) in the assay on 786-0. For the same compound, the GI50 was 63.8 µM (inactive) with K562; > 100 µM in the assay on HCT-15; 40.6 µM (inactive) in the assay on KM12; > 100 µM (inactive) in the assay with UACC-62; > 100 µM (inactive) in the assay with SNB-19.
Take `O=C(Nc1ccc(Cl)cc1Cl)C(=O)C(C(=O)c1ccc2ccccc2c1)C1OC(=O)c2ccccc21` (stereo unspecified): the GI50 with LOX IMVI is 5.19 µM (inactive); with A498 it was 6.7 µM (inactive); in the assay on Malme-3M it was > 10 µM (inactive); in the assay on ACHN it was 15.8 µM (inactive); in the assay with NCI-H460, 4.33 µM (inactive); with HCT-116, 5.56 µM (inactive). In addition, the GI50 in the assay on OVCAR-3 was 10.7 µM (inactive); in the assay on RXF 393, 2.16 µM (inactive); in the assay with SK-MEL-2, 13.7 µM (inactive); in the assay on UO-31 it was 11.4 µM (inactive); in the assay on 786-0 it was 5.97 µM (inactive); in the assay on HCT-15 it was 11.5 µM. In addition, the values for the GI50 in the assay with KM12, in the assay with UACC-62 and in the assay on SNB-19 were 15 µM (inactive), 9.79 µM (inactive) and 5.78 µM (inactive), respectively.
For `CC(=O)CC(=O)CCCC(=O)Nc1ccc(Cl)cc1Cl`, the GI50 with LOX IMVI, in the assay on Malme-3M, with ACHN, in the assay on TK-10, with NCI-H460 and in the assay with HCT-116 was > 100 µM (inactive) throughout. In addition, the GI50 in the assay with OVCAR-3, in the assay with SR, in the assay with SK-MEL-2, in the assay on UO-31, with 786-0 and in the assay on K562 was > 100 µM (inactive) in each case. Besides, the GI50 was > 100 µM in the assay on HCT-15, > 100 µM (inactive) with KM12, > 100 µM (inactive) with UACC-62 and > 100 µM (inactive) in the assay on SNB-19.
Regarding `COc1ccc(S(=O)(=O)N/N=C\c2cc([N+](=O)[O-])cc(I)c2O)c(OC)c1OC`, the GI50 was 32.5 µM (inactive) in the assay with LOX IMVI; 29.8 µM (inactive) with A498; 27.7 µM (inactive) in the assay on Malme-3M; 29.9 µM (inactive) in the assay with ACHN; 40.4 µM (inactive) with TK-10; 33 µM (inactive) in the assay with NCI-H460. In addition, the GI50 in the assay with OVCAR-3 is 20.7 µM (inactive); in the assay on RXF 393 it was 20.8 µM (inactive); with SK-MEL-2 it was 21.4 µM (inactive); in the assay on UO-31 it was 18.5 µM (inactive); in the assay with 786-0, 24.7 µM (inactive); in the assay with K562, 31.6 µM (inactive). Further, the GI50 with HCT-15 was 22.3 µM; in the assay with KM12, 27.8 µM (inactive); in the assay with UACC-62, 21.9 µM (inactive); with SNB-19, 21.1 µM (inactive).
For the compound `Cc1ccc(S(=O)(=O)CC(=O)CC(=O)C(=O)Nc2cccc(C(F)(F)F)c2)cc1`, the GI50 in the assay with LOX IMVI is > 100 µM (inactive); in the assay on Malme-3M, 81.3 µM (inactive); in the assay with ACHN it was > 100 µM (inactive); in the assay on TK-10 it was > 100 µM (inactive); with HCT-116 it was 44.4 µM (inactive); in the assay on OVCAR-3, > 100 µM (inactive). In addition, the GI50 in the assay with SR is > 100 µM (inactive); in the assay on SK-MEL-2, > 100 µM (inactive); in the assay with UO-31 it was > 100 µM (inactive); with 786-0 it was > 100 µM (inactive); in the assay with K562 it was > 100 µM (inactive); in the assay on HCT-15 it was > 100 µM. The GI50 in the assay on KM12, with UACC-62 and in the assay with SNB-19 was > 100 µM (inactive) throughout.
On to `COc1cc2c(cc1OC)C(C(=O)O)C(c1ccccc1)N(C)C2=O` (stereo unspecified), for which the GI50 with A498, with Malme-3M, in the assay with ACHN, with TK-10, in the assay on NCI-H460 and in the assay on HCT-116 was > 100 µM (inactive) throughout. Also, the GI50 in the assay with OVCAR-3, in the assay with SK-MEL-2, in the assay on UO-31, in the assay with 786-0, in the assay on K562 and with KM12 was > 100 µM (inactive) throughout. The GI50 in the assay on UACC-62 and in the assay on SNB-19 was > 100 µM (inactive) throughout.
With `Cc1cccc(NC(=O)CC#N)c1Cl`, the GI50 with LOX IMVI, in the assay on Malme-3M, with ACHN, in the assay with TK-10, in the assay with HCT-116 and in the assay with OVCAR-3 was > 100 µM (inactive) each time. In addition, the GI50 in the assay on SR was > 100 µM (inactive); with SK-MEL-2, > 100 µM (inactive); in the assay with UO-31, 99.3 µM (inactive); in the assay on 786-0 it was > 100 µM (inactive); in the assay with K562, > 100 µM (inactive); with HCT-15, > 100 µM. The GI50 with KM12, in the assay on UACC-62 and with SNB-19 was > 100 µM (inactive) each time.
`CCCCSN1C(=O)c2ccccc2C1=S`: the GI50 in the assay with LOX IMVI was 54.2 µM (inactive); in the assay on A498, > 100 µM (inactive); in the assay with Malme-3M it was 63.7 µM (inactive); with ACHN it was > 100 µM (inactive); in the assay with TK-10 it was > 100 µM (inactive); with NCI-H460, > 100 µM (inactive). Further, the GI50 in the assay with HCT-116 was 40.6 µM (inactive); in the assay on OVCAR-3 it was > 100 µM (inactive); in the assay with RXF 393 it was 81.3 µM (inactive); in the assay on SK-MEL-2, 34.4 µM (inactive); with UO-31 it was 53.3 µM (inactive); in the assay on 786-0, 34.1 µM (inactive). In addition, the GI50 in the assay on K562 was 22.9 µM (inactive); in the assay on HCT-15, > 100 µM; in the assay on KM12 it was 37.8 µM (inactive); in the assay with UACC-62, 55 µM (inactive); in the assay on SNB-19, > 100 µM (inactive).
Turning to `CCN(CC)CCOC(=O)/C(=C/c1ccc(OC)cc1)c1cc(OC)c(OC)c(OC)c1`, the GI50 in the assay with LOX IMVI was 5.08 µM (inactive); with A498 it was 2.48 µM (inactive); in the assay on Malme-3M it was 10.1 µM (inactive); in the assay with ACHN it was 7.67 µM (inactive); in the assay on TK-10, 20.3 µM (inactive); in the assay with NCI-H460 it was 9.66 µM (inactive). Moreover, the GI50 with HCT-116 is 5.45 µM (inactive); with OVCAR-3 it was 4.95 µM (inactive); with RXF 393, 2.15 µM (inactive); in the assay with UO-31 it was 5.13 µM (inactive); with 786-0, 7.64 µM (inactive); in the assay on K562, 3.29 µM (inactive). Besides, the GI50 was 4.82 µM in the assay on HCT-15, 3.77 µM (inactive) with KM12, 3.71 µM (inactive) in the assay with UACC-62 and 13.4 µM (inactive) with SNB-19.
